Experimental findings from patent publication US20070179060A1, “6-(Poly-substituted aryl)-4-aminopicolinates and their use as herbicides” (priority 2006, published 2007) are described below.

Data set [1] deals with lambsquarter (Chenopodium album). The data set is described as follows: Postemergence herbicidal activity. The data set is classed as in vivo. Particulars: post-emergent, 140 g ai/ha, after 14 days; for pest or weed control at 140 g/ha: Chenopodium album, post-emergence, 336 h, read-out: % Control CHEAL. The procedure, abridged: (§1)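 Plants grown 7-21 days in greenhouse (about 15 h photoperiod, 23-29° C day, 22-28° C night) to first or second true leaf stage. Compounds in acetone/water/isopropanol/DMSO carrier with crop oil concentrate and Triton X-155 sprayed overhead at 187 L/ha; controls received solvent blank. Plants sub-irrigated afterwards; dose responses analysed by probit analysis.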

The test system of data set [2] is redroot pigweed (Amaranthus retroflexus). The data set is described as follows: Postemergence herbicidal activity. It counts as in vivo. As to conditions: post-emergent, 140 g ai/ha, after 14 days; for pest or weed control at 140 g/ha: Amaranthus retroflexus, post-emergence, 336 h, read-out: % Control AMARE. Summed up:
as §1

The subject of data set [3] is velvetleaf (Abutilon theophrasti). The data set is described as follows: Postemergence herbicidal activity. It counts as in vivo. Particulars: post-emergent, 140 g ai/ha, after 14 days; for pest or weed control at 140 g/ha: Abutilon theophrasti, post-emergence, 336 h, read-out: % Control ABUTH. Summed up: as §1
Data set [4] has as its system lambsquarter (Chenopodium album). The experiment in a line: Preemergence herbicidal activity. The data set is classed as in vivo. As to conditions: pre-emergent, 140 g ai/ha, after 20-22 days; for pest or weed control at 140 g/ha: Chenopodium album, pre-emergence, 480 h, read-out: % Control CHEAL. From the text:
(§2) Seeds of the desired test plant species were planted in a soil matrix prepared by mixing a loam soil (43 percent silt, 19 percent clay, and 38 percent sand, with a pH of about 8.1 and an organic matter content of about 1.5 percent) and sand in a 70 to 30 ratio. The soil matrix was contained in plastic pots with a surface area of 113 square centimeters. When required to ensure good germination and healthy plants, a fungicide treatment and/or other chemical or physical treatment was applied. […] Compound requirements are based upon a 12 mL application volume at a rate of 187 L/ha. Formulated compounds were applied to the plant material with an overhead Mandel track sprayer equipped with a […] nozzles calibrated to deliver 187 L/ha over an application area of 0.503 square meters at a spray height of 18 inches (43 cm) above the soil surface. Control plants were sprayed in the same manner with the solvent blank. The treated pots and control pots were placed in a greenhouse maintained with an approximate 15 hour photoperiod and temperatures of about 23-29° C. during the day and 22-28° C. during the night. Nutrients and water were added on a regular basis and supplemental lighting was provided with overhead metal halide 1000-watt lamps as necessary. The water was added by top-irrigation.

The test system of data set [5] is redroot pigweed (Amaranthus retroflexus). The experiment in a line: Preemergence herbicidal activity. It counts as in vivo. Particulars: pre-emergent, 140 g ai/ha, after 20-22 days; for pest or weed control at 140 g/ha: Amaranthus retroflexus, pre-emergence, 480 h, read-out: % Control AMARE.
Text: as §2

Data set [6] has as its system velvetleaf (Abutilon theophrasti). The data set is described as follows: Preemergence herbicidal activity. The data set is classed as in vivo. Particulars: pre-emergent, 140 g ai/ha, after 20-22 days; for pest or weed control at 140 g/ha: Abutilon theophrasti, pre-emergence, 480 h, read-out: % Control ABUTH.
Text: as §2

On to `COC(=O)c1nc(-c2c(F)cc(C#N)c(OC)c2F)cc(N)c1Cl` [Compound 95, 4-amino-3-chloro-6-(4-cyano-2,6-difluoro-3-methoxyphenyl)pyridine-2-carboxylic acid, methyl ester], for which the pest or weed control at 140 g/ha turned out to be 90% in data set [1]; 85% in data set [2]; 100% in data set [3]; 90% in data set [4]; 90% in data set [5]; 90% in data set [6].
For `CCOc1c(Cl)cc(F)c(-c2cc(N)c(Cl)c(C(=O)OC)n2)c1F` [Compound 59, 4-Amino-3-chloro-6-(4-chloro-2,6-difluoro-3-ethoxyphenyl)pyridine-2-carboxylic acid, methyl ester], the pest or weed control at 140 g/ha in data set [1] was determined as 90%; in data set [2] it was 90%; in data set [3], 100%; in data set [4] it was 60%; in data set [5] it was 100%; in data set [6] it was 90%.
Turning to `CN(C)c1cc(-c2cc(N)c(Cl)c(C(=O)O)n2)c(F)cc1Cl` [Compound 111, 4-Amino-3-chloro-6-(4-chloro-5-dimethyamino-2-fluorophenyl)pyridine-2-carboxylic acid], the “% Control CHEAL” value in data set [4] worked out at 100%. The “% Control AMARE” value in data set [5] was 100%. In addition, the “% Control ABUTH” value in data set [6] is given as 35%.
On to `COC(=O)c1nc(-c2ccc(Cl)c(C(=O)C(F)(F)F)c2F)cc(N)c1Cl` [Compound 82, 4-Amino-3-chloro-6-[4-chloro-2-fluoro-3-(2,2,2-trifluoroacetyl)phenyl]pyridine-2-carboxylic acid, methyl ester], for which the pest or weed control at 140 g/ha amounted to 95% in data set [1]; 100% in data set [2]; 100% in data set [3]; 100% in data set [4]; 100% in data set [5]; 90% in data set [6].
On to `Nc1cc(-c2ccc(F)c(F)c2F)nc(C(=O)O)c1Cl` [Compound 131, 4-Amino-3-chloro-6-(2,3,4-trifluorophenyl)pyridine-2-carboxlic acid], for which the “% Control CHEAL” value in data set [1] and in data set [4] was 100% throughout. Moreover, the “% Control AMARE” value in data set [2] and in data set [5] was 100% in each case. Besides, the “% Control ABUTH” value in data set [3] was determined as 100%; in data set [6], 90%.
Consider `COC(=O)c1nc(-c2ccc(Cl)c(C(C)F)c2Cl)cc(N)c1Cl` (stereo not shown) [Compound 63], for which the “% Control CHEAL” value in data set [1] and in data set [4] was 100% each time. Besides, the “% Control AMARE” value in data set [2] and in data set [5] was 100% each time. For the same compound, the “% Control ABUTH” value in data set [3] and in data set [6] was 100% each time.
On to `COc1c(Cl)ccc(-c2nc(C(=O)O)c(Cl)c(N)c2F)c1F` [Compound 123, 4-Amino-3-chloro-6-(4-chloro-2-fluoro-3-methoxyphenyl)-5-fluoropyridine-2-carboxylic acid], for which the pest or weed control at 140 g/ha in data set [1], in data set [2], in data set [3], in data set [4], in data set [5] and in data set [6] was 100% throughout.
`CN(C)c1c(Cl)ccc(-c2cc(N)c(Cl)c(C(=O)O)n2)c1F` [Compound 112, 4-Amino-3-chloro-6-(4-chloro-3-dimethyamino-2-fluorophenyl)pyridine-2-carboxylic acid]: the “% Control CHEAL” value in data set [1] and in data set [4] was 100% each time. In addition, the “% Control AMARE” value in data set [2] and in data set [5] was 100% each time. For the same compound, the “% Control ABUTH” value in data set [3] and in data set [6] was 100% throughout.
The melting point is the temperature, or range, at which the solid turns liquid. Consider `COc1cc(-c2nc(C(=O)O)c(Cl)c(N)c2F)c(F)cc1Cl` [Compound 122, 4-Amino-3-chloro-6-(4-chloro-2-fluoro-5-methoxyphenyl)-5-fluoropyridine-2-carboxylic acid], for which the melting point is 180 to 181 °C. The pest or weed control at 140 g/ha in data set [4] came out at 100%. In addition, the pest or weed control at 140 g/ha in data set [5] was 100%. Besides, the pest or weed control at 140 g/ha in data set [6] came to 100%.
Regarding `Cc1c(Cl)ccc(-c2cc(N)c(Cl)c(C(=O)O)n2)c1Cl` [Compound 98, 4-Amino-3-chloro-6-(2,4-dichloro-3-methylphenyl)pyridine-2-carboxylic acid], the melting point is 170 to 172 °C (dec.). Further, the pest or weed control at 140 g/ha in data set [1] came out at 80%. In addition, the pest or weed control at 140 g/ha in data set [2] was 70%. In addition, the pest or weed control at 140 g/ha in data set [3] was determined as 90%.
Regarding `Nc1cc(-c2ccc(Cl)c(OCC(F)F)c2F)nc(C(=O)O)c1Cl` [Compound 96, 4-Amino-3-chloro-6-(4-chloro-2-fluoro-3-(2,2-difluoroethoxy)phenyl)pyridine-2-carboxylic acid], the pest or weed control at 140 g/ha in data set [1] stood at 90%; in data set [2], 100%; in data set [3], 50%; in data set [4], 40%; in data set [5], 70%; in data set [6], 20%.
As to `COC(=O)c1nc(-c2ccc(Cl)c(OCC(F)F)c2F)cc(N)c1Cl` [Compound 8, 4-Amino-3-chloro-6-[4-chloro-2-fluoro-3-(2,2-difluoroethoxy)phenyl]pyridine-2-carboxylic acid methyl ester], the melting point fell in the range of 134 to 136 °C. Further, the pest or weed control at 140 g/ha in data set [1] was determined as 95%. In addition, in data set [2], the pest or weed control at 140 g/ha was 100%. Further, the pest or weed control at 140 g/ha in data set [3] was 80%.
Take `Nc1cc(-c2ccc(Cl)c(C(F)C(F)(F)F)c2F)nc(C(=O)O)c1Cl` (stereo not shown) [Compound 129, 4-Amino-3-chloro-6-[4-chloro-2-fluoro-3-(1,2,2,2-tetrafluoroethyl)-phenyl)pyridine-2-carboxylic acid]: the melting point was 175 to 176 °C (dec.). For the same compound, the pest or weed control at 140 g/ha in data set [1] is 90%. Besides, the pest or weed control at 140 g/ha in data set [2] amounted to 95%. For the same compound, the pest or weed control at 140 g/ha in data set [3] came to 85%.
Consider `COc1c(C(F)(F)F)ccc(-c2cc(N)c(Cl)c(C(=O)O)n2)c1F` [Compound 107, 4-Amino-3-chloro-6-(2-fluoro-3-methoxy-4-trifluoromethylphenyl)pyridine-2-carboxylic acid], for which the melting point was 177 to 178 °C (dec.). The pest or weed control at 140 g/ha in data set [1] came to 90%. Also, in data set [2], the pest or weed control at 140 g/ha came to 80%. In data set [3], the pest or weed control at 140 g/ha was determined as 100%.
Compound `COC(=O)c1nc(-c2ccc(Cl)c(OC(F)F)c2F)cc(N)c1Cl` [Compound 69, 4-Amino-3-chloro-6-(4-chloro-2-fluoro-3-difluoromethoxyphenyl)pyridine-2-carboxylic acid, methyl ester] yielded a melting point of 164 °C. The pest or weed control at 140 g/ha in data set [1] turned out to be 100%. Moreover, in data set [2], the pest or weed control at 140 g/ha was 100%. Further, the pest or weed control at 140 g/ha in data set [3] came out at 100%.
On to `COC(=O)c1nc(-c2ccc(Cl)c(C(F)F)c2Cl)cc(N)c1Cl` [Compound 62, 4-Amino-3-chloro-6-(2,4-dichloro-3-difluoromethylphenyl)pyridine-2-carboxylic acid, methyl ester], for which the pest or weed control at 140 g/ha in data set [1], in data set [2], in data set [3], in data set [4], in data set [5] and in data set [6] was 100% each time.
Turning to `COC(=O)c1nc(-c2ccc(Cl)c(C#N)c2F)cc(N)c1Cl` [Compound 2, 4-Amino-3-chloro-6-(4-chloro-3-cyano-2-fluorophenyl)pyridine-2-carboxylic acid methyl ester], the melting point is 189 to 190 °C. Besides, in data set [1], the pest or weed control at 140 g/ha is 80%. In addition, the pest or weed control at 140 g/ha in data set [2] turned out to be 90%. For the same compound, in data set [3], the pest or weed control at 140 g/ha came to 85%.
